This is an account of results in US20220009894A1, “1,2,3,4-TETRAHYDROQUINOXALINE DERIVATIVE, PREPARATION METHOD THEREFOR AND APPLICATION THEREOF” (Abbisko Therapeutics Co., Ltd., priority 2019, published 2022).

For assay [1], the target named is T1, RORγt (Homo sapiens, UniProt P51449).
T1 construct: The plasmid of pFN26A-RORγt-LBD and pG14.35 (Promega, Cat. No. E1370) were co-transfected into HEK 293 cells; expressed in transfected cells; host or cells: HEK 293 cells (Cat. No. GNHu18)
T1 sequence (P51449 269-508 limits assumed): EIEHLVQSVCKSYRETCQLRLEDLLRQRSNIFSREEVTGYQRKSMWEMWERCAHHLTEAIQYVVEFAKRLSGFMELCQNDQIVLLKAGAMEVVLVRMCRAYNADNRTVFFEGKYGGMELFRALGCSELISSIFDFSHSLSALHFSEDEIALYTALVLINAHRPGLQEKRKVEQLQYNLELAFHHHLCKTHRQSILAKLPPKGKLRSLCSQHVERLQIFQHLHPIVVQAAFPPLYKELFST
The assay is described as follows: RORγt cellular reporter gene detection assay.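 For Cellular Reporter Assay Amax: Ursolic Acid added as 5 µL of 20 µM medium per well.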 It is filed as cell-based. The settings on record: 24 hrs; for EC50: HEK 293 cells co-transfected with pFN26A-RORγt-LBD and pG14.35, in presence of antagonist Ursolic acid, top concentration 50 μM; for Cellular Reporter Assay Amax: upper activation limit, HEK 293 cells, in presence of antagonist Ursolic acid. The procedure, abridged: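 HEK293 cells co-transfected with RORγt-LBD and luciferase reporter plasmids, treated with Ursolic acid antagonist plus compound in 4-fold dilutions from 50 μM for 24 h at 37° C. Firefly and Renilla luminescence read; EC50 and Amax from four-parameter fit.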
For orientation: A reporter such as luciferase makes a cellular process visible.

Assay [2] deals with T2, RORγt-LBD (Homo sapiens, UniProt P51449).
T2 sequence (P51449 269-508 limits assumed): T1 sequence (P51449 269-508 limits assumed)
The assay is described as follows: Time-resolved fluorescence resonance energy-transfer assay (TR-FRET), co-activator peptide recruitment. It is filed as biochemical. Further details: TR-FRET Biochemical Amax: unit not given here. The note with it: for EC50: His-RORγt-LBD 30 nM, SRC peptide 500 nM, agonistic activity, averages of one or more measurements, read-out: TR-FRET Biochemical EC50/; for TR-FRET Biochemical Amax: upper activation limit, His-RORγt-LBD, SRC peptide. The procedure, abridged: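 Eu-anti-His-labelled His-RORγt-LBD (30 nM final) recruits biotin-SRC co-activator peptide (500 nM final), detected via APC-streptavidin (5 nM) and Eu-anti-His (0.25 nM). Buffer was Tris/KCl/EDTA at pH 7.0 with 0.01% Triton X-100 and 1 mM DTT. Compounds were tested at 7 points in 5-fold dilutions. Plates were incubated overnight at 4 °C then 1 h at RT, and agonism was read as the 665/615 nm ratio.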
Background: In TR-FRET formats the signal depends on donor and acceptor labels being close together.

For the compound `C/C(=C\c1ccc2c(c1)N(S(=O)(=O)c1cccc(C(F)(F)F)c1)C[C@@H]1CN(C(=O)CC#N)CCN21)c1c(F)cccc1Cl` [Example 30, (S,E)-3-(8-(2-(2-chloro-6-fluorophenyl)prop-1-en-1-yl)-6-((3-(trifluoromethyl)phenyl)sulfonyl)-1,2,4,4a, 5,6-hexahydro-3H-pyrazino [1,2-a]quinoxalin-3-yl)-3-oxopropanenitrile], in assay [1], the EC50 is 404 nM and the “Cellular Reporter Assay Amax” value is 4.0. Besides, in assay [2], the EC50 was 8.34 nM and the “TR-FRET Biochemical Amax” value is on record as 0.80.

Regarding `CC1(C)C=C(c2ccc3c(c2)N(S(=O)(=O)c2cccc(C(F)(F)F)c2)C[C@@H]2CN(C(=O)CC#N)CCN32)CC(C)(C)O1` [Example 31, (S)-3-oxo-3-(8-(2,2,6,6-tetramethyl-3,6-dihydro-2H-pyran-4-yl)-6-((3-(trifluoro-methyl)phenyl)sulfonyl)-1,2,4,4a,5,6-hexahydro-3H-pyrazino[1,2-a]quinoxa-lin-3-yl)propanenitrile], in assay [1], the EC50 stood at 419 nM and the “Cellular Reporter Assay Amax” value is reported as 3.4. Besides, in assay [2], the EC50 was determined as 11.5 nM and the “TR-FRET Biochemical Amax” value worked out at 0.97.

For the compound `O=S(=O)(c1cccc(C(F)(F)F)c1)N1C[C@@H]2CN(C3COC3)CCN2c2ccc(/C=C/c3c(Cl)cccc3C(F)(F)F)cc21` [Example 32, (S,E)-8-(2-chloro-6-(trifluoromethyl)styryl)-3-(oxetan-3-yl)-6-((3-(trifluoromethyl)phenyl)sulfonyl)-2,3,4,4a,5,6-hexahydro-1H-pyrazino[1,2-a]quinoxaline], in assay [1], the EC50 amounted to 599 nM and the “Cellular Reporter Assay Amax” value was 4.3. For the same compound, in assay [2], the EC50 was determined as 10.8 nM and the “TR-FRET Biochemical Amax” value was 0.93.

Consider `C/C(=C\c1ccc2c(c1)N(S(=O)(=O)c1cccc(C(F)(F)F)c1)C[C@@H]1CN(C3COC3)CCN21)c1c(F)cccc1Cl` [Example 33, (S,E)-8-(2-(2-chloro-6-fluoro-phenyl)prop-1-en-1-yl)-3-(oxetan-3-yl)-6-((3-(trifluoro-methyl)pheny4)sulfonyl)-2,3,4,4a,5,6-hexahydro-1H-pyrazino[1,2-a]quinoxaline], for which, in assay [1], the EC50 stood at 2040 nM and the “Cellular Reporter Assay Amax” value was 5.2. In assay [2], the EC50 was determined as 45.7 nM and the “TR-FRET Biochemical Amax” value was 0.93.

Take `CC1(C)C=C(c2ccc3c(c2)N(S(=O)(=O)c2cccc(C(F)(F)F)c2)C[C@@H]2CN(C4COC4)CCN32)CC(C)(C)O1` [Example 34, (S)-3-(oxetan-3-yl)-8-(2,2,6,6-tetramethyl-3,6-dihydro-2H-pyran-4-yl)-6-((3-(trifluoro-methyl)phenyl)sulfonyl)-2,3,4,4a,5,6-hexahydro-1H-pyrazino[1,2-a]quinoxaline]: in assay [1], the EC50 was determined as 156 nM and the “Cellular Reporter Assay Amax” value was 1.7. In addition, in assay [2], the EC50 came to 3.91 nM and the “TR-FRET Biochemical Amax” value was determined as 1.11.

For `O=S(=O)(c1cccc(C(F)(F)F)c1)N1C[C@@H]2CN(C[C@@H](O)CO)CCN2c2ccc(/C=C/c3c(Cl)cccc3C(F)(F)F)cc21` [Example 35, (R)-3-((S)-8-((E)-2-chloro-6-(trifluoromethyl)styryl)-6-((3-(trifluoromethyl)phenyl)sulfonyl)-1,2,4,4a,5,6-hexahydro-3H-pyrazino[1,2-a]quinoxalin-3-yl)propane-1,2-diol], in assay [1], the EC50 is 467 nM and the “Cellular Reporter Assay Amax” value was 4.2. Further, in assay [2], the EC50 is 24 nM and the “TR-FRET Biochemical Amax” value turned out to be 1.15.

Consider `O=S(=O)(c1cccc(C(F)(F)F)c1)N1C[C@@H]2CN(C[C@H](O)CO)CCN2c2ccc(/C=C/c3c(Cl)cccc3C(F)(F)F)cc21` [Example 36, (S)-3-((S)-8-((E)-2-chloro-6-(trifluoromethyl)styryl)-6-((3-(trifluaromethyl)phenyl)sulfonyl)-1,2,4,4a,5,6-hexahydro-3H-pyrazino[1,2-a]quinoxalin-3-yl)-propane-1,2-diol], for which, in assay [1], the EC50 turned out to be 501 nM and the “Cellular Reporter Assay Amax” value is 4.1. Also, in assay [2], the EC50 turned out to be 24.9 nM and the “TR-FRET Biochemical Amax” value was 1.23.

Consider `C/C(=C\c1ccc2c(c1)N(S(=O)(=O)c1cccc(C(F)(F)F)c1)C[C@@H]1CN(C[C@@H](O)CO)CCN21)c1c(F)cccc1Cl` [Example 37, (R)-3-((S)-8-((E)-2-(2-chloro-6-fluorophenyl)prop-1-en-1-yl)-6-((3-(trifluoromethyl)phe-nyl)sulfonyl)-1,2,4,4a,5,6-hexa-hydro-3H-pyrazino[1,2-a]qui-noxalin-3-yl)propane-1,2-diol], for which, in assay [1], the EC50 turned out to be 366 nM and the “Cellular Reporter Assay Amax” value was found to be 3.7. In addition, in assay [2], the EC50 is 37.5 nM and the “TR-FRET Biochemical Amax” value is reported as 1.21.

Turning to `C/C(=C\c1ccc2c(c1)N(S(=O)(=O)c1cccc(C(F)(F)F)c1)C[C@@H]1CN(C[C@H](O)CO)CCN21)c1c(F)cccc1Cl` [Example 38, (S)-3-((S)-8-((E)-2-(2-chloro-6-fluorophenyl)prop-1-en-1-yl)-6-((3-(trifluoromethyl)phe-nyl)sulfonyl)-1,2,4,4a,5,6-hexa-hydro-3H-pyrazino[1,2-a]qui-noxalin-3-yl)propane-1,2-diol], in assay [1], the EC50 was determined as 290 nM and the “Cellular Reporter Assay Amax” value worked out at 3.7. Further, in assay [2], the EC50 was determined as 40.7 nM and the “TR-FRET Biochemical Amax” value amounted to 1.23.

For the compound `O=S(=O)(c1cccc(C(F)(F)F)c1)N1C[C@@H]2CN(C[C@@H](O)CO)CCN2c2ccc(-c3cc(F)cc(OC(F)F)c3)cc21` [Example 39, (R)-3-((S)-8-(3-(difluorome-thoxy)-5-fluorophenyl)-6-((3-(trifluoromethyl)phenyl)sulfonyl)-1,2,4,4a,5,6-hexahydro-3H-pyrazino[1,2-a]quinoxalin-3-yl) propane-1,2-diol], in assay [1], the EC50 came out at 1240 nM and the “Cellular Reporter Assay Amax” value came out at 2.2. Besides, in assay [2], the EC50 came out at 33.6 nM and the “TR-FRET Biochemical Amax” value is 0.58.

Regarding `O=S(=O)(c1cccc(C(F)(F)F)c1)N1C[C@@H]2CN(C[C@H](O)CO)CCN2c2ccc(-c3cc(F)cc(OC(F)F)c3)cc21` [Example 40, (S)-3-((S)-8-(3-(difluoromethoxy)-5-fluorophenyl)-6-((3-(tri-fluoromethyl)phenyl)sulfonyl)-1,2,4,4a,5,6-hexahydro-3H-pyrazino[1,2-a]quinoxalin-3-yl) propane-1,2-diol], in assay [1], the EC50 stood at 733 nM and the “Cellular Reporter Assay Amax” value amounted to 2.5. In assay [2], the EC50 amounted to 13 nM and the “TR-FRET Biochemical Amax” value turned out to be 0.76.

Turning to `CC1(C)C=C(c2ccc3c(c2)N(S(=O)(=O)c2cccc(C(F)(F)F)c2)C[C@@H]2CN(C[C@H](O)CO)CCN32)CC(C)(C)O1` [Example 42, (S)-3-((S)-8-(2,2,6,6-tetrameth-yl-3,6-dihydro-2H-pyran-4-yl)-6-((3-(trifluoromethyl)phenyl)sulfonyl)-1,2,4,4a,5,6-hexa-hydro-3H-pyrazino[1,2-a]qui-noxalin-3-yl)propane-1,2-diol], in assay [1], the EC50 was found to be 123 nM and the “Cellular Reporter Assay Amax” value turned out to be 1.4. In assay [2], the EC50 worked out at 0.84 nM and the “TR-FRET Biochemical Amax” value is recorded as 1.28.
